Assay results as given in patent US20240083846A1, “SMAC MIMETICS FOR TREATMENT OF CANCER, PROCESS FOR PREPARATION AND PHARMACEUTICAL COMPOSITION THEREOF” (COUNCIL OF SCIENTIFIC & INDUSTRIAL RESEARCH, priority 2020, published 2024).

Assays:
XIAP BIR2 protein = XIAP BIR2 protein (Homo sapiens, UniProt P98170); assay: Fluorescence polarization competition binding assay, XIAP BIR2; details: displacement of AVPIAQK(FAM)-OH, fluorescence polarization; read-out: Target Binding BIR2 Ki
Description: (§1) The SMAC mimetics 1-9 were tested for their ability to displace the fluorescent labeled peptide AVPIAQK(FAM)-OH from XIAP BIR2 or XIAP BIR3 protein. The dose dependent binding experiment were then carried out by sequentially increasing the concentration of SMAC mimetic compounds at constant concentration of fluorescent labeled peptide and XIAP BIR2 or XIAP BIR3 protein. IC5- values were determined from the plot draw by prism software using nonlinear least-squares analysis. The Ki values of the SMAC mimetics were calculated which was based upon the measured IC50 values, the Kd value between tracer AVPIAQK(FAM)-OH and XIAP BIR2 or XIAP BIR3 complex, and the concentrations of the protein and tracer in the competition assay by using the web based program which are freely accessed at http://sw16.im.med.umich.edu/software/calc_ki/.In-silico.
(§2) Binding isotherms were plotted between FP reading versus log values of protein concentration in nM. The data was analysed using GraphPad prism and Kd values were determined using Boltzmann-sigmoidal non-linear regression curve fitting.

XIAP BIR3 protein = XIAP BIR3 protein (Homo sapiens, UniProt P98170); assay: Fluorescence polarization competition binding assay, XIAP BIR3; details: displacement of AVPIAQK(FAM)-OH, fluorescence polarization; read-out: Target Binding BIR3 Ki
XIAP BIR3 protein, sequence (P98170 241-356 limits assumed): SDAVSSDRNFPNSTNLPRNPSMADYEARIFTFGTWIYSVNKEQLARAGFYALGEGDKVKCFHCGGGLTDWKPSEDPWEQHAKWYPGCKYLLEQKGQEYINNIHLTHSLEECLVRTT
Description: as §1, §2

[1] = SRB cytotoxicity assay, VERO; type: cell-based, monkey; details: monkey, VERO cells; 10 μM, 48 hours, SRB assay; read-out: In vitro cytotoxicity at 10 μM dose, VERO (percent growth inhibition)
Description: (§3) In vitro cytotoxic activities of different compounds were assessed by using standard SRB assay in different cells. The absorbance of the treated and untreated cells was measured on a multi-well scanning spectrophotometer (Epoch Microplate Reader, Biotek, USA) at a wavelength of 510 nm. Percent growth inhibition was calculated by using the formula […].

VERO cells = assay: SRB cytotoxicity assay, VERO; type: cell-based, monkey
Description: as §3

CT26 cells = assay: SRB cytotoxicity assay, CT26; type: cell-based; details: Colon (Mouse)
Description: as §3
(§4) SMAC mimetics promotes tumor cell selective cytotoxic effects. SW 620, HT 29, HCT 116 and VERO cells were treated with series of Smac mimetics at 10 μM dose for 48 hours and cytotoxicity was measured by SRB assay. As C6 had shown robust in-vitro cytotoxic effect against tumor cells but not to VERO cells, we determined IC50 value of C6 against different types of cancer cell lines. ICso values are represented in Table 2.

HCC1806 cells = assay: SRB cytotoxicity assay, HCC1806; type: cell-based; details: Homo sapiens, Breast
Description: as §3, §4

4T1 cells = assay: SRB cytotoxicity assay, 4T1; type: cell-based; details: Breast (Mouse)
Description: as §3, §4

A-549 cells = assay: SRB cytotoxicity assay, A-549; type: cell-based; details: Homo sapiens, A549, Lung
Description: as §3, §4

SK-OV-3 cells = assay: SRB cytotoxicity assay, SK-OV-3; type: cell-based; details: Homo sapiens, Ovary
Description: as §3, §4

K562 cells = assay: SRB cytotoxicity assay, K562; type: cell-based; details: Homo sapiens, Leukemia
Description: as §3, §4

U937 cells = assay: SRB cytotoxicity assay, U937; type: cell-based; details: Homo sapiens, U-937, Lymphoma
Description: as §3, §4

[2] = xenograft studies, FIG. 7 and FIG. 8
Description: Mice were randomly assigned to groups by a blinded independent investigator. Throughout the study, the tumor was measured with an electronic digital caliper at a regular interval, and the tumor volume was calculated using standard formula V=Π/6×a2×b, where ‘a’ is the short and ‘b’ is the long tumor axis. At the end of the experiment, mice were sacrificed, and subcutaneous tumors were dissected for further studies. Parts of harvested tumors were minced into small pieces with sterile forceps and scissors and homogenized for lysate preparation.

Annexin-V positive cells = assay: Annexin-V apoptosis analysis; type: cell-based; details: FIG. 2, left
PARP, Caspase-3, cIAP-1 = assay: Apoptosis antibody array / apoptotic markers; type: cell-based; details: treated cells vs control, FIG. 2 right and FIG. 3
Description: Apoptosis array was performed by using Proteome Profiler Human Apoptosis Array Kit (ARY009) from R&D Systems following the manufacturer's instructions. The detailed assay procedure was followed. The images were captured by the gel documentation system (Bio-Rad chemidoc XRS plus), while ImageJ software (NIH) was used for analysis and quantification. Plotly software was used for heatmap generation (Montreal, Canada).

[3] = tested on: TRAIL mediated tumor cell cytotoxic response; assay: Combination cytotoxicity with DR5 ligand TRAIL; type: cell-based; details: in vitro, FIG. 4
cancer cells = assay: Colony formation assay; type: cell-based; details: FIG. 5
Description: The clonogenic colony formation assay was done on single-cell suspension. Briefly, cells were plated in complete McCoy's medium into 12-well plates and 24 hours later, were treated with different agents at different doses either alone or in combination. The cells were cultured for two weeks with renewing the media every 3rd day. The plates were washed with PBS and fixed with ice-cold methanol followed by staining with 0.5% crystal violet in methanol for 30 min. Excess stain was removed by washing with water thoroughly and plates were allowed to dry. Representative images were captured in the gel documentation system (Bio-Rad chemidoc XRS plus) while ImageJ software (NIH) was used for analysis and quantification to monitor single cell colony formation efficiency under the different treatment combinations.

cancer cell lines = assay: Cytotoxic potential against cancer cell lines (overall statement); type: cell-based; details: all cancer cells tested
Description: as §3, §4

in vivo = details: mouse
Description: SIF, SGF and other stability studies were performed by following standard protocol. […] Mice were administered their respective doses according to body weight by intravenous (lateral vein), Subcutaneous route and Oral respectively. Blood samples were collected at 0.083, 0.25, 0.5, 0.75, 1, 2, 4, 8, 12, 24 and 48 hours. Plasma was separated and processed for analysis. For pharmacokinetic analysis, plasma concentration versus time data were plotted and analyzed by non-compartmental analysis method using WinNonlin (Pharsight, Mountain View, CA) software.

XIAP BIR2 protein, sequence (P98170 124-240 limits assumed): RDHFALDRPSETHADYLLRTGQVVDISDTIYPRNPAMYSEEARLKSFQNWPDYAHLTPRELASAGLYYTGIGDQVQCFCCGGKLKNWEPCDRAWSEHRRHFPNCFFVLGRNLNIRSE

CC[C@H](C)[C@H](NC(=O)[C@@H]1CC[C@H](c2ccc(C)o2)N1C(=O)[C@@H](NC(=O)[C@H](C)NC)C(C)C)C(=O)NC(c1ccccc1)c1ccccc1 [Compound 6, (2S,5R)-N-((2S,3S)-1-(benzhydrylamino)-3-methyl-1-oxopentan-2-yl)-1-((S)-3-methyl-2-((S)-2-(methylamino)propanamido)butanoyl)-5-(5-methylfuran-2-yl)pyrrolidine-2-carboxamide]
Ki (XIAP BIR2 protein): 3.21 µM
Ki (XIAP BIR3 protein): 0.58 µM
inhibition at 48 h, 10 μM [1]: 18.4 ± 2.1%
IC50 (VERO cells; Primates, Kidney (monkey), VERO): > 10 µM
Toxicity against VERO cells (in words) (VERO cells; non-human VERO cells): limited or minimal toxicity
IC50 (CT26 cells): > 10 µM
IC50 (HCC1806 cells): 5.79 µM
IC50 (4T1 cells): 4.17 µM
IC50 (A-549 cells): > 10 µM
IC50 (SK-OV-3 cells): 3.91 µM
IC50 (K562 cells): 9.1 µM
IC50 (U937 cells): 8.98 µM
Body weight / tolerability during course of treatment [2]: no weight loss was observed
Apoptosis (Annexin-V positive cells) (Annexin-V positive cells): promotes smac driven apoptotic features
Hallmark apoptotic features (PARP, Caspase-3, cIAP-1) (PARP, Caspase-3, cIAP-1): cleavage of PARP and Caspase-3 and degradation of cIAP-1
Sensitization of TRAIL mediated tumor cell cytotoxic response [3]: robustly sensitizes
Colony formation in XIAP overexpressed and DR5 knock down cells (cancer cells; XIAP overexpressed and DR5 knock down cells): significant resistant of C6 mediated apoptotic cell death
Colony formation: effect of Pan caspase inhibitor Z-VAD-FMK on C6 cytotoxic phenotype (cancer cells; with Z-VAD-FMK): markedly rescues cytotoxic phenotype of C6
Cytotoxic activity against cancer cells (in words) (cancer cell lines): potent cytotoxic activity
half-life (in vivo; iv, 4 mg/kg): 0.19 ± 0.05 h
half-life (in vivo; po, 30 mg/kg): 3.84 ± 1.8 h
half-life (in vivo; sc, 30 mg/kg): 2.1 ± 0.15 h
